Like-named read-outs stand apart in the source and are kept apart here.
Experiments:
[1] = tested on: normal human lymphocytes; assay: Toxicity of artemisinin-tagged peptide in normal lymphocytes (cell counting)
Method: (§1) The artemisinin-tagged peptide HAIYPRH was tested on human Molt-4 lymphobastoid leukemia cells and compared with normal human lymphocytes, as follows. […] Cell viability was determined before an experiment by using trypan blue dye exclusion. After an initial counting of cells, human holotransferrin (Sigma Chemicals, St. Louis, Mo.) was added to samples of the cells. […] An equal volume of medium was added to control samples. […] At 24, 48 and 72 hrs after the addition of the tagged peptide, cell concentrations in appropriate flasks were counted using a counting hemocytometer chamber and microscope. In a similar set up, the same procedures were carried out on normal human lymphocytes.

[2] = tested on: human Molt-4 lymphobastoid leukemia cells; assay: cells; settings: for IC50: read-out: IC50 on Molt-4 cells
Method: as §1

[3] = tested on: human leukemia cells; settings: cited from earlier work
[4] = cited from earlier work
[5] = tested on: DAOY human Medulloblastoma cells; settings: for relative effectiveness on medulloblastoma cells (DAOY cells): two versus one artemisinin moiety
Method: DAOY human Medulloblastoma cells (10,000 cells/200 μL) were seeded on a 96 well plate and incubated for 24 h at 37° C. Cell culture medium was removed after 24 h and 150 μL of medium with different combinations of drug treatment was added. Human holotransferrin (20 μM) was added to half of the samples. Treatment medium was removed after 48 h, and 100 μL of cell medium was added, and the following protocol was used to determine cell viability: (1) 10 μL of 12 mM MTT reagent was added to each well; (2) the cultures were incubated at 37° C. for 4 h; (3) 100 μL of isopropanol was added to each well to lyse the cells and then incubated at 4° C. for 30 min; (4) after incubation each well was plunged (3×200 μL) to ensure the cells were lysed; (5) the samples were then centrifuged at 13,000 rpm in a microcentrifuge for 3 min at room temperature; and (6) 100 μL of the supernatant was read in a plate reader at λ=570 nm.

## C[C@H]1[C@@H](O)O[C@@H]2O[C@@]3(C)CC[C@H]4[C@H](C)CC[C@@H]1[C@@]24OO3 [DHA, dihydroartemisinin]
[1]; Homo sapiens, Lymphocyte, read-out: IC50 for normal leukocytes
  IC50: 43 ± 22 µM
[2]; Homo sapiens, MOLT-4, 72 h
  IC50: 5.3 ± 0.26 µM
[2]; fresh sample, after 72 hr
  LD50 (μM) (fresh sample): 5.3 ± 0.26 µM
[2]; stored in DMSO at room temperature for 30 days, after 72 hr
  LD50 (μM) (after stored in DMSO at room temperature for 30 days): 5.01 ± 0.35 µM

## C[C@@H]1CC[C@H]2[C@@H](C)C(=O)O[C@@H]3O[C@@]4(C)CC[C@@H]1[C@]32OO4 [Artemisinin]
[3]
  therapeutic index (toxicity towards cancer cells versus normal cells): approximately 100

## C[C@H]1[C@H](OC(=O)CCC(=O)O)O[C@@H]2O[C@@]3(C)CC[C@H]4[C@H](C)CC[C@@H]1[C@@]24OO3 [artesunate]
[4]; cancer patient, 9 months (i.m. 60 mg/day 15 days; oral 50 mg per day 8.5 months)
  adverse side effects: No apparent adverse side effects

## CO[C@H]1O[C@@H]2O[C@@]3(C)CC[C@H]4[C@H](C)CC[C@@H]([C@H]1C)[C@@]24OO3 [artemether]
[4]; patient with pituitary macroadenoma, oral, 12 months
  adverse side effects: without any observed adverse side effects

## CC[C@H](C)[C@H](NC(=O)[C@H](C)NC(=O)[C@H](Cc1c[nH]cn1)NC(=O)c1ccc(/C=N/NC(=O)c2ccc(COC3OC4O[C@@]5(C)CCC6[C@H](C)CCC([C@H]3C)[C@@]46OO5)cc2)cc1)C(=O)N[C@@H](Cc1ccc(O)cc1)C(=O)N1CCC[C@H]1C(=O)N[C@@H](CCCNC(=N)N)C(=O)N[C@@H](Cc1c[nH]cn1)C(N)=O (stereo partly shown) [ART-peptide]
[1]; 3.1, 6.2, 12.4 μM, 24, 48 and 72 hours
  effect on normal lymphocytes (cell viability): without affecting normal lymphocytes

## CC[C@H](C)[C@H](NC(=O)[C@H](C)NC(=O)[C@H](Cc1c[nH]cn1)NC(=O)[C@H](CCCCNC(=O)c1ccc(/C=N/NC(=O)c2ccc(COC3OC4O[C@@]5(C)CCC6[C@H](C)CCC([C@H]3C)[C@@]46OO5)cc2)cc1)NC(=O)c1ccc(/C=N/NC(=O)c2ccc(COC3OC4O[C@@]5(C)CCC6[C@H](C)CCC([C@H]3C)[C@@]46OO5)cc2)cc1)C(=O)N[C@@H](Cc1ccc(O)cc1)C(=O)N1CCC[C@H]1C(=O)N[C@@H](CCCNC(=N)N)C(=O)N[C@@H](Cc1c[nH]cn1)C(N)=O (stereo partly shown) [ART2-peptide]
[2]; kept in DMSO at room temperature for one month
  change in activity after storage in DMSO: essentially no change in activity
[2]; at 72 hrs, holotransferrin 12 μM
  IC50: 0.86 ± 0.1 µM
[5]; 48 h treatment, MTT
  effect on medulloblastoma cells (DAOY cells): effective
[5]
  relative effectiveness on medulloblastoma cells (DAOY cells): more effective than ART-peptide
[5]; listed as peptide containing two artemisinin moieties
  relative effectiveness on medulloblastoma cells (DAOY cells): more potent than peptide containing one moiety
